From patent US7157494B2, “Dimeric compounds and their use as anti-viral agents” (priority 2001, dated 2007)
Values after ≈ are worked out from the molar mass of the structure shown. Values joined by “and” are separate entries in the source; they are usually repeats but may differ in a detail not shown here. Identical values can stand only once. Like-named read-outs stand apart in the source and are kept apart here.

How the values were obtained:
[1] = test system: A/Panama/2007/99 BVLV008 (H3N2); experiment: Plaque reduction assay (PRA) in MDCK cells; format: cell-based, influenza A H3N2; conditions: for EC50: Influenza A virus, H3N2, MDCK, reduces plaque numbers by 50%, A/Panama/2007/99 (H3N2), read-out: EC50 PRA A/Pan
Experimental: (§1) Madin Darby Canine Kidney (MDCK) cells are seeded into six well tissue culture plates and grown to confluency via standard methods. Influenza viruses are diluted in a minimal volume of phosphate buffered saline supplemented with 0.2% bovine serum albumin to yield an estimated titre of 50–100 plaque forming units (pfu) per well. After adsorption to the MDCK cells for one hour at 37° C. in a 5% CO2 atmosphere the viral inocula is aspirated and replaced with viral growth media (minimal Eagle's media supplemented with BSA, trypsin and insulin/transferrin/selenium at optimal concentrations) containing sufficient agar or agarose (generally 1–2%) to cause the media to gel at room temperature and at 37° C. in a 5% CO2 atmosphere until plaques develop (generally 2–4 days). Plaques can be visualised with a suitable stain (e.g. 0.4% crystal violet in formal saline) before counting.

[2] = test system: A/Victoria/3/75 BVLV017 (H3N2); experiment: Plaque reduction assay (PRA) in MDCK cells; format: cell-based, influenza A H3N2; conditions: for EC50: Influenza A virus, MDCK, reduces plaque numbers by 50%, A/Victoria/3/75 (H3N2), read-out: EC50 PRA A/Vic
Experimental: as §1

[3] = test system: B/Yamanashi/166/98 BVLV007; experiment: Plaque reduction assay (PRA) in MDCK cells; format: cell-based, influenza B; conditions: for EC50: Influenza B virus, MDCK, B/Yamanashi/166/98
Experimental: as §1

[4] = test system: B/Hong Kong/5/72 BVLV012; experiment: Plaque reduction assay (PRA) in MDCK cells; format: cell-based, influenza B; conditions: for EC50: Influenza B virus, MDCK, read-out: EC50 PRA B/HongK
Experimental: as §1

[5] = test system: A/New Caledonia/20/99 BVLV008 (H1N1); experiment: Plaque reduction assay (PRA) in MDCK cells; format: cell-based, influenza A H1N1; conditions: for EC50: Influenza A virus, H1N1, MDCK, reduces plaque numbers by 50%, A/New Caledonia/20/99 (H1N1)
Experimental: as §1

[6] = test system: Influenza B/Harbin/7/95; format: cell-based; conditions: concentration that inhibited CPE by 50%; MDCK cells, up to 72 hours, MTT
[7] = Rat lung retention assay (intra-tracheal dosing, compound level in lung tissue); format: in vivo; conditions: for concentration at 48 h / concentration at 168 h: Mean [cmpd] ng/g; for [cmpd] / Mean [cmpd]: rat lung tissue; for [cmpd]: individual animal
Experimental: Rodents are anaesthetised and dosed with compound of interest by the intra-tracheal route at a dose volume of 0.8 ml/kg. The rodent is then held in the vertical position until full recovery is achieved. […] Any analytical method suitable for detection of this type of compound may be used. The time at which levels of compound fall below the sensitivity of the analytical techniques identified will determine the residency time of the compound in lung tissue.
Please note that all experiments included a co-dosed internal standard, namely compound 3 of International Patent Publication No. WO 02/20514, to permit comparison. The data are expressed as a ratio with respect to this compound, the structure of which is shown below.

[8] = test system: Influenza A/Sydney/5/97; format: cell-based; conditions: concentration that inhibited CPE by 50%; MDCK cells, up to 72 hours, MTT
[9] = test system: A/Sydney/5/97 BVLV015 (H3N2); experiment: Plaque reduction assay (PRA) in MDCK cells; format: cell-based, influenza A H3N2
Experimental: as §1

[10] = test system: A/WSN/33 BVLV09 (H1N1); experiment: Plaque reduction assay (PRA) in MDCK cells; format: cell-based, influenza A H1N1
Experimental: as §1

[11] = test system: A/Bayern/7/95 BVL006 (H1N1); experiment: Plaque reduction assay (PRA) in MDCK cells; format: cell-based, influenza A H1N1
Experimental: as §1

NC12CC3CC(CC(C3)C1)C2 [Amantadine]
EC50 [1]: 157 ng/mL (≈ 1040 nM) | EC50 [2]: 220 ng/mL (≈ 1450 nM) | EC50 ([3]; reduces plaque numbers by 50%, read-out: EC50 PRA B/Yam): 2060 ng/mL (≈ 13600 nM) | EC50 ([4]; reduces plaque numbers by 50%, B/Hong Kong/5/72): > 10000 ng/mL | EC50 [5]: 11 ng/mL (≈ 72.7 nM)

CC(=O)N[C@H]1[C@H]([C@H](OC(=O)NCCCCNS(=O)(=O)c2cccc(S(=O)(=O)NCCCCNC(=O)O[C@@H]([C@@H]3OC(C(=O)O)=C[C@H](NC(=N)N)[C@H]3NC(C)=O)[C@H](O)CO)c2)[C@H](O)CO)OC(C(=O)O)=C[C@@H]1NC(=N)N [Compound 3]
ID50 B/Harbin/7/95 [6]: 0.07 ng/mL (≈ 0.0639 nM) | Ratio Mean [lung] [cmpd]/PCT AU01/01128 compound 3 ([7]; rat, in vivo, 0.1 mg/kg, 48 h): 0.49 | Ratio Mean [lung] [cmpd]/PCT AU01/01128 compound 3 ([7]; rat, in vivo, 0.1 mg/kg, 168 h): 0.36 | concentration at 48 h ([7]; rat, in vivo, 0.1 mg/kg): 1410 ng/g | concentration at 168 h ([7]; rat, in vivo, 0.1 mg/kg): 329 ng/g | ID50 A/Sydney/5/97 [8]: 0.1 ng/mL (≈ 0.0913 nM)

CC(=O)N[C@H]1[C@H]([C@H](OC(=O)NCCCNC(=O)c2cccc(C(=O)NCCCNC(=O)O[C@@H]([C@@H]3OC(C(=O)O)=C[C@H](NC(=N)N)[C@H]3NC(C)=O)[C@H](O)CO)c2)[C@H](O)CO)OC(C(=O)O)=C[C@@H]1NC(=N)N [Compound 11]
ID50 B/Harbin/7/95 [6]: 0.1 ng/mL (≈ 0.101 nM) | ID50 A/Sydney/5/97 [8]: 0.1 ng/mL (≈ 0.101 nM)

CC(=O)N[C@H]1[C@H]([C@H](OC(=O)NCCCCCCNC(=O)c2cccc(C(=O)NCCCCCCNC(=O)O[C@@H]([C@@H]3OC(C(=O)O)=C[C@H](NC(=N)N)[C@H]3NC(C)=O)[C@H](O)CO)c2)[C@H](O)CO)OC(C(=O)O)=C[C@@H]1NC(=N)N [Compound 8]
ID50 B/Harbin/7/95 [6]: 0.9 ng/mL (≈ 0.834 nM) | ID50 A/Sydney/5/97 [8]: 0.4 ng/mL (≈ 0.371 nM)

CC(=O)N[C@H]1[C@H]([C@H](OC(=O)NCCCNC(=O)c2ccccc2C(=O)NCCCNC(=O)O[C@@H]([C@@H]2OC(C(=O)O)=C[C@H](NC(=N)N)[C@H]2NC(C)=O)[C@H](O)CO)[C@H](O)CO)OC(C(=O)O)=C[C@@H]1NC(=N)N [Compound 12]
ID50 B/Harbin/7/95 [6]: 0.1 ng/mL (≈ 0.101 nM) | ID50 A/Sydney/5/97 [8]: >100 ng/mL

CC(=O)N[C@H]1[C@H]([C@H](OC(=O)NCCCNC(=O)c2ccc(C(=O)NCCCNC(=O)O[C@@H]([C@@H]3OC(C(=O)O)=C[C@H](NC(=N)N)[C@H]3NC(C)=O)[C@H](O)CO)cc2)[C@H](O)CO)OC(C(=O)O)=C[C@@H]1NC(=N)N [Compound 5]
EC50 PRA A/Syd [9]: 0.05 ng/mL (≈ 0.0503 nM) | EC50 PRA A/Pan [1]: 0.03 ng/mL (≈ 0.0302 nM) | EC50 PRA A/Vic [2]: 0.003 ng/mL (≈ 0.00302 nM) | [cmpd] ([7]; 48 hrs, 0.1 mg/kg intra-tracheal, 0.1 mg/kg): 1325 ng/g and 750 ng/g and 778 ng/g | Mean [cmpd] ([7]; 48 hrs, 0.1 mg/kg intra-tracheal): 951 ng/g | [cmpd] ([7]; 168 hrs, 0.1 mg/kg intra-tracheal, 0.1 mg/kg): 272 ng/g and 636 ng/g and 300 ng/g | Mean [cmpd] ([7]; 168 hrs, 0.1 mg/kg intra-tracheal): 403 ng/g | Ratio Mean [lung] [cmpd]/PCT AU01/01128 compound 3 ([7]; rat lung, 48 hrs, 0.1 mg/kg intra-tracheal): 0.68 | Ratio Mean [lung] [cmpd]/PCT AU01/01128 compound 3 ([7]; rat lung, 168 hrs, 0.1 mg/kg intra-tracheal): 0.41 | EC50 PRA B/Yam [3]: 0.022 ng/mL (≈ 0.0221 nM) | EC50 PRA B/HongK [4]: 0.316 ng/mL (≈ 0.318 nM) | EC50 PRA A/WSN [10]: 0.02 ng/mL (≈ 0.0201 nM) | EC50 PRA A/New [5]: 0.06 ng/mL (≈ 0.0603 nM) | EC50 PRA A/Bay [11]: 0.009 ng/mL (≈ 0.00905 nM)

CC(=O)N[C@H]1[C@H]([C@H](OC(=O)NCCCCCCNC(=O)c2ccc(C(=O)NCCCCCCNC(=O)O[C@@H]([C@@H]3OC(C(=O)O)=C[C@H](NC(=N)N)[C@H]3NC(C)=O)[C@H](O)CO)cc2)[C@H](O)CO)OC(C(=O)O)=C[C@@H]1NC(=N)N [Compound 6]
ID50 B/Harbin/7/95 [6]: 0.9 ng/mL (≈ 0.834 nM) | ID50 A/Sydney/5/97 [8]: 0.2 ng/mL (≈ 0.185 nM)

CC(=O)N[C@H]1[C@H]([C@H](OC(=O)NCCCCCCNC(=O)c2ccccc2C(=O)NCCCCCCNC(=O)O[C@@H]([C@@H]2OC(C(=O)O)=C[C@H](NC(=N)N)[C@H]2NC(C)=O)[C@H](O)CO)[C@H](O)CO)OC(C(=O)O)=C[C@@H]1NC(=N)N [Compound 7]
ID50 B/Harbin/7/95 [6]: 0.8 ng/mL (≈ 0.741 nM) | ID50 A/Sydney/5/97 [8]: 0.7 ng/mL (≈ 0.649 nM)

CC(=O)N[C@H]1[C@H]([C@H](OC(=O)NCCCCNC(=O)c2cccc(C(=O)NCCCCNC(=O)O[C@@H]([C@@H]3OC(C(=O)O)=C[C@H](NC(=N)N)[C@H]3NC(C)=O)[C@H](O)CO)c2)[C@H](O)CO)OC(C(=O)O)=C[C@@H]1NC(=N)N [Compound 1]
Ratio Mean [lung] [cmpd]/PCT AU01/01128 compound 3 ([7]; rat, in vivo, 0.1 mg/kg, 48 h): 0.44 | Ratio Mean [lung] [cmpd]/PCT AU01/01128 compound 3 ([7]; rat, in vivo, 0.1 mg/kg, 168 h): 0.41 | concentration at 48 h ([7]; rat, in vivo, 0.1 mg/kg): 1280 ng/g | concentration at 168 h ([7]; rat, in vivo, 0.1 mg/kg): 372 ng/g

CC(=O)N[C@@H]1[C@@H](NC(=N)N)C=C(C(=O)O)O[C@H]1C(OC(=O)NCCC(=O)NCc1ccc(CNC(=O)CCNC(=O)O[C@@H]([C@@H]2OC(C(=O)O)=C[C@H](NC(=N)N)[C@H]2NC(C)=O)[C@H](O)CO)cc1)[C@H](O)CO (stereo partly shown) [Compound 4]
ID50 B/Harbin/7/95 [6]: 0.4 ng/mL (≈ 0.402 nM) | ID50 A/Sydney/5/97 [8]: 0.3 ng/mL (≈ 0.302 nM)

CC(=O)N[C@H]1[C@H]([C@H](OC(=O)NCCCNC(=O)c2cc(C(=O)O)cc(C(=O)NCCCNC(=O)O[C@@H]([C@@H]3OC(C(=O)O)=C[C@H](NC(=N)N)[C@H]3NC(C)=O)[C@H](O)CO)c2)[C@H](O)CO)OC(C(=O)O)=C[C@@H]1NC(=N)N [Compound 9]
ID50 B/Harbin/7/95 [6]: 0.3 ng/mL (≈ 0.289 nM) | ID50 A/Sydney/5/97 [8]: 0.1 ng/mL (≈ 0.0962 nM)

CC(=O)N[C@H]1[C@H]([C@H](OC(=O)NCCCNC(=O)Cc2ccccc2CC(=O)NCCCNC(=O)O[C@@H]([C@@H]2OC(C(=O)O)=C[C@H](NC(=N)N)[C@H]2NC(C)=O)[C@H](O)CO)[C@H](O)CO)OC(C(=O)O)=C[C@@H]1NC(=N)N [Compound 14]
ID50 B/Harbin/7/95 [6]: 0.3 ng/mL (≈ 0.293 nM) | ID50 A/Sydney/5/97 [8]: 0.2 ng/mL (≈ 0.195 nM)

CCOC(=O)C1=C[C@@H](OC(CC)CC)[C@H](NC(C)=O)[C@@H](N)C1 [Oseltamivir]
EC50 [1]: 0.3 ng/mL (≈ 0.96 nM) | EC50 [2]: 0.11 ng/mL (≈ 0.352 nM) | EC50 ([3]; read-out: EC50 PRA B/Yam, reduces plaque numbers by 50%): 0.7 ng/mL (≈ 2.24 nM) | EC50 [4]: 32 ng/mL (≈ 102 nM) | EC50 [5]: 0.23 ng/mL (≈ 0.736 nM)

CC(=O)N[C@H]1[C@H]([C@H](OC(=O)NCCCNC(=O)Cc2ccc(CC(=O)NCCCNC(=O)O[C@@H]([C@@H]3OC(C(=O)O)=C[C@H](NC(=N)N)[C@H]3NC(C)=O)[C@H](O)CO)cc2)[C@H](O)CO)OC(C(=O)O)=C[C@@H]1NC(=N)N [Compound 13]
ID50 B/Harbin/7/95 [6]: 0.3 ng/mL (≈ 0.293 nM) | ID50 A/Sydney/5/97 [8]: 0.1 ng/mL (≈ 0.0977 nM)
